Peptide text beside a SMILES is read from it.
Assays:
[1] = system: Acinetobacter baumannii KCTC 2508; format: cell-based; details: various salt concentrations
Method: To determine whether the peptides prepared in <Example 1> retain antimicrobial activity under salt concentrations present in vivo, the minimal inhibitory concentration (MIC) of the peptides was measured under various salt concentrations. Specifically, among the bacterial strains listed in Table 2, Acinetobacter baumannii KCTC 2508 was cultured in suitable medium to the mid-log phase, then diluted to a concentration of 2×10^4 cells/100 μL and dispensed into a microtiter plate (Nunc, USA). The peptides prepared in <Example 1> were serially diluted two-fold under various salt concentration conditions and added to the wells, followed by incubation at 37° C. for 18 hours. Absorbance at 600 nm was measured using a microtiter plate reader (Merck ELISA reader, Germany) to determine the MIC values for each strain. The parent peptide dCATH was used as a control.

[2] = system: Acinetobacter baumannii isolate 10; experiment: In vivo antimicrobial activity, intranasal lung infection, H&E staining; design: species or system BALB/c mice; details: mice intranasally infected with A. baumannii isolate 10, peptide intranasal, day 3
Method: Among the peptides prepared in <Example 1>, dCATH-A7 was selected to evaluate in vivo antimicrobial activity.
Among the antibiotic-resistant strains, Acinetobacter baumannii isolate 10 was selected for the experiment. The bacteria were washed three times with PBS buffer prior to use. After a one-week acclimation period, BALB/c mice (6 weeks old) were intranasally infected with 20 μL of a 1×10^9 CFU/mL bacterial suspension. Following infection, the peptide was prepared at a concentration of 5 mg/mL and administered intranasally. On day 3, lung tissue samples were collected and subjected to hematoxylin and eosin (H&E) staining to assess tissue damage.

| Compound | antimicrobial activity (MIC) under salt conditions compared to the parent peptide dCATH [1] | lung tissue damage (H&E staining) [2] |
| --- | --- | --- |
| CC[C@H](C)[C@H](NC(=O)[C@H](C)NC(=O)[C@H](CCCCN)NC(=O)[C@H](CCCCN)NC(=O)[C@@H](NC(=O)[C@H](CC(C)C)NC(=O)[C@H](CCC(N)=O)NC(=O)[C@H](C)NC(=O)[C@H](C)NC(=O)[C@H](CCCNC(=N)N)NC(=O)[C@@H](N)CCCCN)C(C)C)C(=O)N[C@@H](CCCCN)C(=O)N[C@@H](CCCCN)C(=O)N[C@@H](Cc1ccc(O)cc1)C(=O)N[C@@H](CCCNC(=N)N)C(=O)N[C@@H](C)C(=O)N[C@@H](Cc1c[nH]c2ccccc12)C(=O)N[C@@H](CCCCN)C(=O)N[C@@H](CCCNC(=N)N)C(=O)N[C@@H](CCCNC(=N)N)C(N)=O [dCATH-A6] (H-KRAAQLVKKAIKKYRAWKRR-NH2; N-terminus assumed) | lower MIC values than the control |  |
| CC[C@H](C)[C@H](NC(=O)[C@H](C)NC(=O)[C@H](CCCCN)NC(=O)[C@H](CCCCN)NC(=O)[C@@H](NC(=O)[C@H](CC(C)C)NC(=O)[C@H](CCC(N)=O)NC(=O)[C@H](C)NC(=O)[C@H](C)NC(=O)[C@H](CCCNC(=N)N)NC(=O)[C@@H](N)CCCCN)C(C)C)C(=O)N[C@@H](CCCCN)C(=O)N[C@@H](CCCCN)C(=O)N[C@@H](Cc1ccc(O)cc1)C(=O)N[C@@H](CCCNC(=N)N)C(=O)N[C@@H](C)C(=O)N[C@@H](Cc1c[nH]c2ccccc12)C(=O)N[C@@H](CCCCN)C(N)=O [dCATH-A7, KRAAQLVKKAIKKYRAWK] (H-KRAAQLVKKAIKKYRAWK-NH2; N-terminus assumed) | lower MIC values than the control | minimal fibrosis and overall reduced tissue damage |

Source: patent US20260217765A1, “NOVEL ANTIMICROBIAL PEPTIDE DESIGNED FROM DUCK-DERIVED ANTIMICROBIAL PEPTIDE ANDUSE THEREOF” (INDUSTRY-ACADEMIC COOPERATION FOUNDATION, CHOSUN UNIVERSITY, priority 2023, published 2026)
